Data published in PMC6744473, “Structure of the thermo-sensitive TRP channel TRP1 from the alga Chlamydomonas reinhardtii” (Nature Communications, 2019).
Structures can show the parent of a compound that is named as a salt.

Assays:
[1] = molecular target: T1, crTRP1 (Chlamydomonas reinhardtii, UniProt Q0Z852); experiment: planar lipid bilayer single-channel recording; type: biochemical; conditions: inhibitor 10 µM; 2.5 µM PIP2, 28 °C, +120 mV
T1 construct: HEK 293S GnTI-; purified in GDN or LMNG; homotetramer; from primer N-terminus MKVAPAPASGQP, C-terminus TAAAGH before the tag
T1 sequence (Q0Z852 1-901): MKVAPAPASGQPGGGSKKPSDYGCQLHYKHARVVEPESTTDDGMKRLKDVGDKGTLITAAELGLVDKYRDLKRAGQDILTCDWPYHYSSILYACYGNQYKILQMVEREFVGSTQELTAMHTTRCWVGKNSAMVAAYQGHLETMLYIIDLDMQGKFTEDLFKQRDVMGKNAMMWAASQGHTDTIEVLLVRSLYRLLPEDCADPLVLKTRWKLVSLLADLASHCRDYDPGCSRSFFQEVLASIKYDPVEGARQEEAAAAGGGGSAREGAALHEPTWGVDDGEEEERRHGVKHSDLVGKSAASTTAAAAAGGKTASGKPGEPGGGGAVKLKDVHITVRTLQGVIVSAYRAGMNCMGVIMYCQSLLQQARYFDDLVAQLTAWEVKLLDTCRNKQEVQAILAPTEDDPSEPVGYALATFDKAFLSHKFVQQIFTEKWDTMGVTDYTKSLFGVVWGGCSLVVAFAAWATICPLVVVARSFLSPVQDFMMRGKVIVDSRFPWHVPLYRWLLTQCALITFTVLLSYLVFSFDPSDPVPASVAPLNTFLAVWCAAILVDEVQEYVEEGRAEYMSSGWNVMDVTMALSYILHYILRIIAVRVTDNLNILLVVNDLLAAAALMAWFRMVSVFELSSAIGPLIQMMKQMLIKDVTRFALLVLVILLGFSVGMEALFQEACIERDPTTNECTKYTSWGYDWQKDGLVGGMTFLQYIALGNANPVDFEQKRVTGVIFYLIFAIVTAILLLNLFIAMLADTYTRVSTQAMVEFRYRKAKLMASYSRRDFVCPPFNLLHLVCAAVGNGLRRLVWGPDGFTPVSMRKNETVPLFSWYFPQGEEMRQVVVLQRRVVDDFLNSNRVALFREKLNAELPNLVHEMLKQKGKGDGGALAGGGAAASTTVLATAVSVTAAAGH

[2] = molecular target: T1, crTRP1; experiment: planar lipid bilayer single-channel recording; type: biochemical; conditions: activator 2.5 µM; POPG/POPC/POPE bilayer, pH 7.2, 28 °C; diC8 form added to both compartments
[3] = molecular target: T2, crTRP1 (Chlamydomonas reinhardtii, UniProt Q0Z852); experiment: planar lipid bilayer single-channel recording; type: biochemical; conditions: activator test; deletion borders not given, only primers; loss of activation
T2 construct: HEK 293S GnTI-; purified in GDN or LMNG; homotetramer; from primer N-terminus MKVAPAPASGQP, C-terminus TAAAGH before the tag

[4] = molecular target: transient receptor potential (TRP) channel crTRP1 from Chlamydomonas reinhardtii (Chlamydomonas reinhardtii); experiment: cryo-EM structure; crTRP1 in MSP2N2 nanodiscs (POPC:POPE 3:1; 150 mM KCl, 20 mM Hepes pH 7.4, 1 µM CaCl2, 20 µM MgCl2, no detergent); grids frozen at 22 °C; 3.45 Å; C2 symmetry; self-association: homotetramer
[5] = molecular target: transient receptor potential (TRP) channel crTRP1 from Chlamydomonas reinhardtii (Chlamydomonas reinhardtii); experiment: cryo-EM structure; crTRP1 in detergent GDN (20 mM Tris pH 8.0, 150 mM NaCl, 0.01% GDN, 1 mM BME, 10 mM TCEP added); grids frozen at 4 °C; 3.53 Å; self-association: homotetramer

## CC(C)(C)c1ccc(NC(=O)N2CCN(c3ncccc3Cl)CC2)cc1 [BCTC, N-(4-tertiarybutylphenyl)-4-(3-cholorphyridin-2-yl)tetrahydropyrazine-1(2 H)-carbox-amide]
[1]
  Po change at 10 μM: BCTC) strongly suppressed crTRP1-mediated currents (Fig. 1g, h)

## CCCCCCCC(=O)OC[C@H](COP(=O)(O)O[C@@H]1[C@H](O)[C@H](O)[C@@H](OP(=O)(O)O)[C@H](OP(=O)(O)O)[C@H]1O)OC(=O)CCCCCCC [PIP2, 1-(1,2R-dioctanoylphosphatidyl)inositol-4,5-bisphosphate, trisodium salt]
[2]
  planar lipid bilayer single-channel recording: Addition of PIP2 readily evoked channel openings.
[3]
  planar lipid bilayer single-channel recording: deleting the entire pre-S1 elbow resulted in a greatly reduced Po and loss of activation by PIP2

## transient receptor potential (TRP) channel crTRP1 from Chlamydomonas reinhardtii (natural protein)
[4]
  stoichiometry N: 4
[5]
  stoichiometry N: 4
